{"source": "patent US9624214B2", "about": "“Amino-substituted imidazo[1,2-a]pyridinecarboxamides and their use” (BAYER PHARMA AKTIENGESELLSCHAFT, priority 2012, dated 2017)", "biological_target": "T1, recombinant guanylate cyclase reporter cell line (Rattus norvegicus, UniProt P19686+P20595)", "T1 construct": "expressed in transfected cells", "T1 sequence (P20595 1-619)": "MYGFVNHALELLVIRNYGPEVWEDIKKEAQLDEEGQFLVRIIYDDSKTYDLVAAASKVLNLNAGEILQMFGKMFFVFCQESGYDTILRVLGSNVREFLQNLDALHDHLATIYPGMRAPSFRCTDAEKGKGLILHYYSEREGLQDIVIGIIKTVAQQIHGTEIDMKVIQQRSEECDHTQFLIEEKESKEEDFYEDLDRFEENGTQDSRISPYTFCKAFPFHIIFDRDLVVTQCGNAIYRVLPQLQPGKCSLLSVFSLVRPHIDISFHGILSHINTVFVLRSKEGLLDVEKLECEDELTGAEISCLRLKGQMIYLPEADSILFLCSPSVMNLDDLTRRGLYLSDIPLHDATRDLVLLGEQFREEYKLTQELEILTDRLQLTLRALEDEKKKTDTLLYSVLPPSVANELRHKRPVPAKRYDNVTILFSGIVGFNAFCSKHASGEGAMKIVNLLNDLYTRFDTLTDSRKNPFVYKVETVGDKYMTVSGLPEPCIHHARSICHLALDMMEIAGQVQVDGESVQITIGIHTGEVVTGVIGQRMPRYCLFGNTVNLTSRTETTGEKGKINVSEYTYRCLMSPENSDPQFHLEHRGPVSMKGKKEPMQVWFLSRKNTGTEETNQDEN", "T1 sequence (P19686 1-690)": "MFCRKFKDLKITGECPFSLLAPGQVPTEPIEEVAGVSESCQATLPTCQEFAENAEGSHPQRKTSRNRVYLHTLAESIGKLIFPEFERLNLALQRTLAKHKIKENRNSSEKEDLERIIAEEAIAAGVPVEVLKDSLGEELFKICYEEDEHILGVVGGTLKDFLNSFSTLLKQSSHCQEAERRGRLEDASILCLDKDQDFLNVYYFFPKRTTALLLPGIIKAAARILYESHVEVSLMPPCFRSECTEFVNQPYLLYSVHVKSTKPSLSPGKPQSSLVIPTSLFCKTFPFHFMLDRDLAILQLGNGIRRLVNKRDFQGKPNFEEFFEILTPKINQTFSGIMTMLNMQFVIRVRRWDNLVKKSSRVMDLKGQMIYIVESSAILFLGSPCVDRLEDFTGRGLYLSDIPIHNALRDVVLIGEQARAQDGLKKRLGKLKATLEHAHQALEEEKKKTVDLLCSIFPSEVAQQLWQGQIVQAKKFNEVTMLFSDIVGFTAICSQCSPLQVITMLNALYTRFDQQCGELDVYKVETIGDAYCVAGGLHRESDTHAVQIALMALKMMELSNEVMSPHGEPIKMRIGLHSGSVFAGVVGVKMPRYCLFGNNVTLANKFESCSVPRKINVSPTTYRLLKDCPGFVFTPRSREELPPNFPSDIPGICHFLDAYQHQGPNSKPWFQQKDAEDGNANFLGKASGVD", "assay": "B-2. Action on recombinant guanylate cyclase reporter cell line", "assay_type": "cell-based", "settings": "MEC = minimal effective concentration; in some cases mean values from individual determinations", "method": "B-2. Action on Recombinant Guanylate Cyclase Reporter Cell Line\nThe cellular action of the compounds according to the invention is determined on a recombinant guanylate cyclase reporter cell line, as described in F. Wunder et al., Anal. Biochem. 339, 104-112 (2005).\nRepresentative MEC values (MEC=minimal effective concentration) for the compounds according to the invention are shown in the following table (in some cases as mean values obtained from individual determinations): […]", "data": [{"compound": "Cc1nc2c(OCc3c(F)cccc3F)cc(Cl)cn2c1C(=O)NCC(N)COC(C)C", "note": "(racemic) [Example 217, rac-N-(2-Amino-3-isopropoxypropyl)-6-chloro-8-[(2,6-difluorobenzyl)oxy]-2-methylimidazo[1,2-a]pyridine-3-carboxamide]", "values": [{"measurement": "MEC", "result": 1.00, "unit": "µM"}]}, {"compound": "Cc1cc(OCc2c(F)cccc2F)c2nc(C)c(C(=O)NCC(C)(N)CC(C)C)n2c1", "note": "(racemic) [Example 218, rac-N-(2-Amino-2,4-dimethylpentyl)-8-[(2,6-difluorobenzyl)oxy]-2,6-dimethylimidazo[1,2-a]-pyridine-3-carboxamide]", "values": [{"measurement": "MEC", "result": 0.10, "unit": "µM"}]}, {"compound": "Cc1nc2c(OCc3c(F)cccc3F)cc(Cl)cn2c1C(=O)NCC(C)(N)CC(C)C", "note": "(racemic) [Example 225, rac-N-(2-Amino-2,4-dimethylpentyl)-6-chloro-8-[(2,6-difluorobenzyl)oxy]-2-methylimidazo[1,2-a]pyridine-3-carboxamide]", "values": [{"measurement": "MEC", "result": 0.30, "unit": "µM"}]}, {"compound": "Cc1nc2c(OCc3c(F)cccc3F)cccn2c1C(=O)NCC(N)C(F)(F)C(F)F", "note": "(racemic) [Example 230, rac-N-(2-Amino-3,3,4,4-tetrafluorobutyl)-8-[(2,6-difluorobenzyl)oxy]-2-methylimidazo[1,2-a]-pyridine-3-carboxamide]", "values": [{"measurement": "MEC", "result": 1.00, "unit": "µM"}]}, {"compound": "CCCC(C)(N)CNC(=O)c1c(C)nc2c(OCc3c(F)cccc3F)cc(C)cn12", "note": "(racemic) [Example 232, rac-N-(2-Amino-2-methylpentyl)-8-[(2,6-difluorobenzyl)oxy]-2,6-dimethylimidazo[1,2-a]pyridine-3-carboxamide]", "values": [{"measurement": "MEC", "result": 0.10, "unit": "µM"}]}, {"compound": "Cc1cc(OCc2c(F)cccc2F)c2nc(C)c(C(=O)NCC3CCc4ccccc4N3)n2c1", "note": "(racemic) [Example 235, rac-8-[(2,6-Difluorobenzyl)oxy]-2,6-dimethyl-N-(1,2,3,4-tetrahydroquinolin-2-ylmethyl)imidazo-[1,2-a]pyridine-3-carboxamide]", "values": [{"measurement": "MEC", "result": 0.30, "unit": "µM"}]}, {"compound": "Cc1nc2c(OCc3c(F)cccc3F)cc(Cl)cn2c1C(=O)NCC(C)(N)C(F)(F)F", "note": "(racemic) [Example 236, rac-N-(2-Amino-3,3,3-trifluoro-2-methylpropyl)-6-chloro-8-[(2,6-difluorobenzyl)oxy]-2-methylimidazo[1,2-a]pyridine-3-carboxamide]", "values": [{"measurement": "MEC", "result": 0.30, "unit": "µM"}]}, {"compound": "Cc1cc(OCc2c(F)cccc2F)c2nc(C)c(C(=O)NCC(C)(N)C(F)(F)F)n2c1", "note": "(racemic) [Example 239, rac-N-(2-Amino-3,3,3-trifluoro-2-methylpropyl)-8-[(2,6-difluorobenzyl)oxy]-2,6-dimethyl-imidazo[1,2-a]pyridine-3-carboxamide]", "values": [{"measurement": "MEC", "result": 0.30, "unit": "µM"}]}, {"compound": "CCCC(C)(N)CNC(=O)c1c(C)nc2c(OCc3c(F)cccc3F)cc(Cl)cn12", "note": "(racemic) [Example 244, rac-N-(2-Amino-2-methylpentyl)-6-chloro-8-[(2,6-difluorobenzyl)oxy]-2-methylimidazo[1,2-a]-pyridine-3-carboxamide]", "values": [{"measurement": "MEC", "result": 0.30, "unit": "µM"}]}, {"compound": "Cc1cc(OCCC(C)C)c2nc(C)c(C(=O)NCC(C)(N)CC(C)C)n2c1", "note": "(racemic) [Example 249, rac-N-(2-Amino-2,4-dimethylpentyl)-2,6-dimethyl-8-(3-methylbutoxy)imidazo[1,2-a]pyridine-3-carboxamide]", "values": [{"measurement": "MEC", "result": 1.00, "unit": "µM"}]}, {"compound": "Cc1nc2c(OCc3c(F)cccc3F)cccn2c1C(=O)NCC1CCc2ccccc2N1", "note": "(racemic) [Example 250, rac-8-[(2,6-Difluorobenzyl)oxy]-2-methyl-N-(1,2,3,4-tetrahydroquinolin-2-ylmethyl)imidazo[1,2-a]pyridine-3-carboxamide]", "values": [{"measurement": "MEC", "result": 1.00, "unit": "µM"}]}, {"compound": "CCC(C)(N)CNC(=O)c1c(C)nc2c(OCc3c(F)cccc3F)cccn12", "note": "(racemic) [Example 254, rac-N-(2-Amino-2-methylbutyl)-8-[(2,6-difluorobenzyl)oxy]-2-methylimidazo[1,2-a]pyridine-3-carboxamide]", "values": [{"measurement": "MEC", "result": 0.30, "unit": "µM"}]}]}
